Laboratory results published in patent publication US8192761B2, “Granular preparation containing biguanide compound” (Dainippon Sumitomo Pharma Co., Ltd., priority 2005, dated 2012).

assay: Stability testing: appearance (solidification) of fine granules after storage in tightly sealed glass containers; assay type: physicochemical; details: additive added to metformin hydrochloride fine granules, 40° C.
Method: Using fine granules obtained in Examples 1-14 and Comparative Examples 1-16, a stability testing was performed. Fine granules (5 g) were each placed in glass containers, which were tightly sealed and stored at 40° C. for 1 week.
Appearance of metformin hydrochloride fine granules after storage at 40° C. for 1 week

| Compound | solidification-preventive effect |
| --- | --- |
| O=P([O-])([O-])O.[Ca+2] [anhydrous dibasic calcium phosphate] | did not show a solidification-preventive effect |
| O=C([O-])[O-].[Ca+2] [calcium carbonate] | did not show a solidification-preventive effect |
| [Ca+2].[Cl-].[Cl-] [calcium chloride] | a solidification-preventive effect was observed |
| OC[C@H]1O[C@@H](O[C@H]2[C@H](O)[C@@H](O)C(O)O[C@@H]2CO)[C@H](O)[C@@H](O)[C@H]1O (stereo partly drawn) [lactose] | did not show a solidification-preventive effect |
| calcium stearate | did not show a solidification-preventive effect |
| magnesium stearate | a solidification-preventive effect was observed |
